Experiments:
Assay in all cases: radiometric filter-binding kinase assay
CAMKK2 (human) = CAMKK2 (human) (UniProt Q96RR4)
HIPK1 (human) = HIPK1 (human) (UniProt Q86Z02)
GSK3B (human) = GSK3B (human) (UniProt P49841)
BRSK2 (human) = BRSK2 (human) (UniProt Q8IWQ3)
SRC (human) = SRC (human) (UniProt P12931)
INSR (human) = INSR (human) (UniProt P06213)
PRKCZ (human) = PRKCZ (human) (UniProt Q05513)
PRKAA1 or PRKAA2 (rat) = conditions: accession and sequence are those of the human protein
EPHB4 (human) = EPHB4 (human) (UniProt P54760)
MARK4 (human) = MARK4 (human) (UniProt Q96L34)
MAP3K1 (human) = MAP3K1 (human) (UniProt Q13233)
IGF1R (human) = IGF1R (human) (UniProt P08069)
Sequence of IGF1R (human) (P08069 whole entry, looked up): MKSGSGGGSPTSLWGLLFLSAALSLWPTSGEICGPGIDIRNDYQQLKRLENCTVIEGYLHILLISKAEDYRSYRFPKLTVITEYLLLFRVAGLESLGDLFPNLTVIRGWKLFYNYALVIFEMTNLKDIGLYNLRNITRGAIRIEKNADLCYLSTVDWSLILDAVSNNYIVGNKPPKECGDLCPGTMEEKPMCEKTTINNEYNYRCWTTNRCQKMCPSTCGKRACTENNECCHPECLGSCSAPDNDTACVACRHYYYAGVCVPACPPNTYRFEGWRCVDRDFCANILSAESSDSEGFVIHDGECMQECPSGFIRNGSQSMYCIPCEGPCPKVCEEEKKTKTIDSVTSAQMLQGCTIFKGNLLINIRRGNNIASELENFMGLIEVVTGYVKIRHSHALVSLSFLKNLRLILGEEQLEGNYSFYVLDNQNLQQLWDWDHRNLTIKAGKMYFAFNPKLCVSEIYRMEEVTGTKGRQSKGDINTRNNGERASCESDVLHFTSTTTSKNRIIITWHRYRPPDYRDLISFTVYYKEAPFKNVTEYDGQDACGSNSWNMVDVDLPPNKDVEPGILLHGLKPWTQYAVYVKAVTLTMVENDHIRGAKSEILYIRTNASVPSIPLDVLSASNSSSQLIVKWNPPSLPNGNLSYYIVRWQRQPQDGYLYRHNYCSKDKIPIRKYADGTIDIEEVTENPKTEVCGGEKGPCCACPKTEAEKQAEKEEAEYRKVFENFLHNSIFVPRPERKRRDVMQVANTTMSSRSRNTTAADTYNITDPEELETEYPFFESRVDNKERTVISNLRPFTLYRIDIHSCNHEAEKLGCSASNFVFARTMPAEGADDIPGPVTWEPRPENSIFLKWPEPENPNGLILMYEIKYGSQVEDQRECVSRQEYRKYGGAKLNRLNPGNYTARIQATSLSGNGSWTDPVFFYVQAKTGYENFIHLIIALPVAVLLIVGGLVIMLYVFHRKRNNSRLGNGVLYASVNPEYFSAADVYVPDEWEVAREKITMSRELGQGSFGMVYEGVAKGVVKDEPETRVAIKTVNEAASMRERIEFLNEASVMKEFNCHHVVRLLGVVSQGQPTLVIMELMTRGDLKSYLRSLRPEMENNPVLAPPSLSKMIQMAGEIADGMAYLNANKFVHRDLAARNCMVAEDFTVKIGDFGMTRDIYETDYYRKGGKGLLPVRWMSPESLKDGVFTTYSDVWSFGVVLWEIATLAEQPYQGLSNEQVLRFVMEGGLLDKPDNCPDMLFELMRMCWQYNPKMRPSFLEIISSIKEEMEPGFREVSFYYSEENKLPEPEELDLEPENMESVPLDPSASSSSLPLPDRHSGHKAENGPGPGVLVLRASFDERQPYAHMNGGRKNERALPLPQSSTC

ROCK2 (rat) = conditions: accession and sequence are those of the human protein
MAP3K7 TAB1 (human) = MAP3K7 TAB1 (human) (UniProt Q15750+O43318)
YES1 (human) = YES1 (human) (UniProt P07947)
EPHB3 (human) = EPHB3 (human) (UniProt P54753); conditions: compound 10.0 µM
HIPK2 (human) = HIPK2 (human) (UniProt Q9H2X6)
LCK (mouse) = conditions: accession and sequence are those of the human protein
CSK (human) = CSK (human) (UniProt P41240)
EPHB1 (human) = EPHB1 (human) (UniProt P54762)
PAK6 (human) = PAK6 (human) (UniProt Q9NQU5)
Sequence of PAK6 (human) (Q9NQU5 whole entry, looked up): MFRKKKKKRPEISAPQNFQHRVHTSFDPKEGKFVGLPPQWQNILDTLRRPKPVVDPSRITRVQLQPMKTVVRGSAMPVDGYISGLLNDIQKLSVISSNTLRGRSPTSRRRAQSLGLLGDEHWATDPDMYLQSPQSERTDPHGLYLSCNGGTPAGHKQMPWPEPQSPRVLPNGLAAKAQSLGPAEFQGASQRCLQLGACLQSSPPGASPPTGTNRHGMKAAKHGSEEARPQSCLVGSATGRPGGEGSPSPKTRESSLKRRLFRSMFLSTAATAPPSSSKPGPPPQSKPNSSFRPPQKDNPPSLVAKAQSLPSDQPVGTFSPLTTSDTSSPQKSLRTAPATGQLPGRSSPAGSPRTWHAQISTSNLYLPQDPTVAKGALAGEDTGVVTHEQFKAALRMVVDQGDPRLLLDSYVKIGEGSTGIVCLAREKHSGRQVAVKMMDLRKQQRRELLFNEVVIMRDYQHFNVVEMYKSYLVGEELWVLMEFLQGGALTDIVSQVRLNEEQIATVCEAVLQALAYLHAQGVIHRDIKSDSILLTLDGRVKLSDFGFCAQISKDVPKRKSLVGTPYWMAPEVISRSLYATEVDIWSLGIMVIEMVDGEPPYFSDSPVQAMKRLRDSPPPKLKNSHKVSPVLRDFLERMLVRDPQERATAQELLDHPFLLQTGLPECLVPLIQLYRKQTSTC

SYK (human) = SYK (human) (UniProt P43405)
RPS6KA5 KD1 KD2 (human) = RPS6KA5 KD1 KD2 (human) (UniProt O75582)
MAPK13 (human) = MAPK13 (human) (UniProt O15264)
PAK7 (human) = PAK7 (human) (UniProt Q9P286)
Sequence of PAK7 (human) (Q9P286 whole entry, looked up): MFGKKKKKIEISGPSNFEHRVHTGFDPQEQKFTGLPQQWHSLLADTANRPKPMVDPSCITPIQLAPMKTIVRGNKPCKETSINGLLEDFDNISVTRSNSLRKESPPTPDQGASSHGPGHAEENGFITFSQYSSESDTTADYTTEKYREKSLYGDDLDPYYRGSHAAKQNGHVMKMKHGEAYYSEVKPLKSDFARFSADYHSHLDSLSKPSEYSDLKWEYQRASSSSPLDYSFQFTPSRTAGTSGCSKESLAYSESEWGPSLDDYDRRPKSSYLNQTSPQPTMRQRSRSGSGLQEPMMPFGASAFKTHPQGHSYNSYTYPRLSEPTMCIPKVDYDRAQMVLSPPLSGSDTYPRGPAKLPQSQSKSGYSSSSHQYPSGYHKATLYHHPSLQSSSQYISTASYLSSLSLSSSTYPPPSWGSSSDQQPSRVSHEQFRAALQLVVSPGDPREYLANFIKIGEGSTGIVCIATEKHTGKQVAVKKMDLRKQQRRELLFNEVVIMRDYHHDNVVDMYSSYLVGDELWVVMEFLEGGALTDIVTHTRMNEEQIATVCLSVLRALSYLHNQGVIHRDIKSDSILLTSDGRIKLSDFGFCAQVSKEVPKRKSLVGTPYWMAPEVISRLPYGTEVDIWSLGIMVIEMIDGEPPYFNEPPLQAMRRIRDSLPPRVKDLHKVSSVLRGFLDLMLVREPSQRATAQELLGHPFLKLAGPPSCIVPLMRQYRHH

[1] = test system: AKT2 (human), P31751 [S474D]
HIPK3 (human) = HIPK3 (human) (UniProt Q9H422)
DAPK1 (human) = DAPK1 (human) (UniProt P53355)
CLK2 (human) = CLK2 (human) (UniProt P49760)
PKN2 (human) = PKN2 (human) (UniProt Q16513)
MAP3K5 (human) = MAP3K5 (human) (UniProt Q99683)
EPHA4 (human) = EPHA4 (human) (UniProt P54764)
MAP3K9 (human) = MAP3K9 (human) (UniProt P80192)
Sequence of MAP3K9 (human) (P80192 whole entry, looked up): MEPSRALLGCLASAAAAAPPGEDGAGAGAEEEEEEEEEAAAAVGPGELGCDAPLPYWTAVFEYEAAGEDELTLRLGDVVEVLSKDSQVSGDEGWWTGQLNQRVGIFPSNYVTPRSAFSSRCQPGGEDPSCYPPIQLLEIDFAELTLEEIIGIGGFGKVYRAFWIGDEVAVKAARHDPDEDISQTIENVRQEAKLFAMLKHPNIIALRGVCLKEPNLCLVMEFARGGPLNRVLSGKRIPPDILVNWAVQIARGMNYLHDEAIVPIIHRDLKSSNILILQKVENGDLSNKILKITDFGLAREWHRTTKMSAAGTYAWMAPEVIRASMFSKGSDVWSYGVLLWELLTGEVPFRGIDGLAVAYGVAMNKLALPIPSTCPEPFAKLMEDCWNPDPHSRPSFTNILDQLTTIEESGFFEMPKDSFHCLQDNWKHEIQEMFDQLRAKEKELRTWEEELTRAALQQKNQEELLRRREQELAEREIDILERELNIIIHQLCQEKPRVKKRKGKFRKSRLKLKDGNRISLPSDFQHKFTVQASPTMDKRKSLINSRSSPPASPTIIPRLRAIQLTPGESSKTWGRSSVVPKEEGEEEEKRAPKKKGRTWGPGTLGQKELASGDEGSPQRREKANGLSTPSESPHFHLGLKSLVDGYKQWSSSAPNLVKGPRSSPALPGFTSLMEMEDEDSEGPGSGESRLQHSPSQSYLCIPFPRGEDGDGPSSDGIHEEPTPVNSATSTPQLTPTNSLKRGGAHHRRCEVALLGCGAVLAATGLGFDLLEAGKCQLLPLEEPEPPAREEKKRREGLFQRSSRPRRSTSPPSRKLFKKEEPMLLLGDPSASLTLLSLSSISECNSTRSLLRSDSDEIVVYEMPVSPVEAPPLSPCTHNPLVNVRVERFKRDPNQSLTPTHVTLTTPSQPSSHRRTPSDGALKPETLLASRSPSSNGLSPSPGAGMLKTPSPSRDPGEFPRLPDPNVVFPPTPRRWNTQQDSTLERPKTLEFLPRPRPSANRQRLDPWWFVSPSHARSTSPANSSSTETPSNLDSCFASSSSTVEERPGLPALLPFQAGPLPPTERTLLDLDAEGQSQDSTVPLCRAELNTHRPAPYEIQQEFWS

PLK1 (human) = PLK1 (human) (UniProt P53350)
MAPK1 (human) = MAPK1 (human) (UniProt P28482)
Sequence of MAPK1 (human) (P28482 whole entry, looked up): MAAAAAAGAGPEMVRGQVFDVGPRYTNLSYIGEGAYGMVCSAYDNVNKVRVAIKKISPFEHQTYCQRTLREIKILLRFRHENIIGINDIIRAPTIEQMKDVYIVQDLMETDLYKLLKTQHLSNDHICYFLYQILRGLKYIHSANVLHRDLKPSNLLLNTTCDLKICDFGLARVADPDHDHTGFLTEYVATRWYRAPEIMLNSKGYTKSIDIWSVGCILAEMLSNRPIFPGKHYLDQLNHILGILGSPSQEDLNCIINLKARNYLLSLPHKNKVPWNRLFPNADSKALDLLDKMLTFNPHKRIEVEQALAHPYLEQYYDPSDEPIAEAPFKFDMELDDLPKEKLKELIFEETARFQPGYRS

MAPK11 (human) = MAPK11 (human) (UniProt Q15759)

Sequence of CAMKK2 (human) (Q96RR4 whole entry, looked up): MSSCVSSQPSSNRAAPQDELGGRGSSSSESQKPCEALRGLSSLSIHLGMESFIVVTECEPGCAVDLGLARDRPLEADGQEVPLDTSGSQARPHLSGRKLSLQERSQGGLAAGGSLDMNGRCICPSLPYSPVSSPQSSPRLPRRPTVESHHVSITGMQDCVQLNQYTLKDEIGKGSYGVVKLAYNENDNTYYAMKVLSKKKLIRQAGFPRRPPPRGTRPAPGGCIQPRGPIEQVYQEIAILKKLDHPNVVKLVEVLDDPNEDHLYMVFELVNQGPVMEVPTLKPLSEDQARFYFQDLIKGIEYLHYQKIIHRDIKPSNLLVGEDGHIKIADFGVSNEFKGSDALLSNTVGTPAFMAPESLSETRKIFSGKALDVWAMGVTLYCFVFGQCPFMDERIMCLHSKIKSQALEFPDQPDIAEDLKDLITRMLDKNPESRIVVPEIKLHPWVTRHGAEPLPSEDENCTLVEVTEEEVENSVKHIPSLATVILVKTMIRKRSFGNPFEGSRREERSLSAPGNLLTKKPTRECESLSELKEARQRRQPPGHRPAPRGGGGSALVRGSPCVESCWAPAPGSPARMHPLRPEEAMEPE

residual activity (CAMKK2 (human); compound 1.0 µM): 28% | residual activity (CAMKK2 (human); compound 10.0 µM): 7% | residual activity (HIPK1 (human); compound 1.0 µM): 78% | residual activity (HIPK1 (human); compound 10.0 µM): 35% | residual activity (GSK3B (human); compound 1.0 µM): 90% | residual activity (GSK3B (human); compound 10.0 µM): 83% | residual activity (BRSK2 (human); compound 1.0 µM): 80% | residual activity (BRSK2 (human); compound 10.0 µM): 38% | residual activity (SRC (human); compound 1.0 µM): 87% | residual activity (SRC (human); compound 10.0 µM): 83% | residual activity (INSR (human); compound 1.0 µM): 19% | residual activity (INSR (human); compound 10.0 µM): 2% | residual activity (PRKCZ (human); compound 1.0 µM): 99% | residual activity (PRKCZ (human); compound 10.0 µM): 83% | residual activity (PRKAA1 or PRKAA2 (rat); compound 1.0 µM): 75% | residual activity (PRKAA1 or PRKAA2 (rat); compound 10.0 µM): 56% | residual activity (EPHB4 (human); compound 1.0 µM): 96% | residual activity (EPHB4 (human); compound 10.0 µM): 87% | residual activity (MARK4 (human); compound 1.0 µM): 91% | residual activity (MARK4 (human); compound 10.0 µM): 67% | residual activity (MAP3K1 (human); compound 1.0 µM): 104% | residual activity (MAP3K1 (human); compound 10.0 µM): 99% | residual activity (IGF1R (human); compound 1.0 µM): 32% | residual activity (IGF1R (human); compound 10.0 µM): 38% | residual activity (ROCK2 (rat); compound 1.0 µM): 85% | residual activity (ROCK2 (rat); compound 10.0 µM): 72% | residual activity (MAP3K7 TAB1 (human); compound 1.0 µM): 17% | residual activity (MAP3K7 TAB1 (human); compound 10.0 µM): 2% | residual activity (YES1 (human); compound 1.0 µM): 104% | residual activity (YES1 (human); compound 10.0 µM): 104% | residual activity (EPHB3 (human)): 83% | residual activity (HIPK2 (human); compound 1.0 µM): 88% | residual activity (HIPK2 (human); compound 10.0 µM): 65% | residual activity (LCK (mouse); compound 1.0 µM): 108% | residual activity (LCK (mouse); compound 10.0 µM): 101% | residual activity (CSK (human); compound 1.0 µM): 101% | residual activity (CSK (human); compound 10.0 µM): 94% | residual activity (EPHB1 (human); compound 1.0 µM): 100% | residual activity (EPHB1 (human); compound 10.0 µM): 90% | residual activity (PAK6 (human); compound 1.0 µM): 107% | residual activity (PAK6 (human); compound 10.0 µM): 93% | residual activity (SYK (human); compound 1.0 µM): 70% | residual activity (SYK (human); compound 10.0 µM): 33% | residual activity (RPS6KA5 KD1 KD2 (human); compound 1.0 µM): 91% | residual activity (RPS6KA5 KD1 KD2 (human); compound 10.0 µM): 49% | residual activity (MAPK13 (human); compound 1.0 µM): 102% | residual activity (MAPK13 (human); compound 10.0 µM): 98% | residual activity (PAK7 (human); compound 1.0 µM): 95% | residual activity (PAK7 (human); compound 10.0 µM): 56% | residual activity ([1]; compound 1.0 µM): 92% | residual activity ([1]; compound 10.0 µM): 95% | residual activity (HIPK3 (human); compound 1.0 µM): 107% | residual activity (HIPK3 (human); compound 10.0 µM): 98% | residual activity (DAPK1 (human); compound 1.0 µM): 43% | residual activity (DAPK1 (human); compound 10.0 µM): 9% | residual activity (CLK2 (human); compound 1.0 µM): 50% | residual activity (CLK2 (human); compound 10.0 µM): 9% | residual activity (PKN2 (human); compound 1.0 µM): 73% | residual activity (PKN2 (human); compound 10.0 µM): 65% | residual activity (MAP3K5 (human); compound 1.0 µM): 44% | residual activity (MAP3K5 (human); compound 10.0 µM): 10% | residual activity (EPHA4 (human); compound 1.0 µM): 97% | residual activity (EPHA4 (human); compound 10.0 µM): 76% | residual activity (MAP3K9 (human); compound 1.0 µM): 25% | residual activity (MAP3K9 (human); compound 10.0 µM): 3% | residual activity (PLK1 (human); compound 1.0 µM): 76% | residual activity (PLK1 (human); compound 10.0 µM): 39% | residual activity (MAPK1 (human); compound 1.0 µM): 99% | residual activity (MAPK1 (human); compound 10.0 µM): 71% | residual activity (MAPK11 (human); compound 1.0 µM): 98% | residual activity (MAPK11 (human); compound 10.0 µM): 91%
Structure (SMILES): CCNc1nc(Nc2cc(F)c(C(=O)N3CCOCC3)cc2OC)ncc1C(F)(F)F

Reference: the kinase profiling compilation of Christmann-Franck et al. (2016)
